Source: ChEMBL document CHEMBL4177673, “Imidazo[1,2-a]pyridin-6-yl-benzamide analogs as potent RAF inhibitors” (Bioorg Med Chem Lett, 2017)
Converted amounts (≈) assume the structure as drawn.

Tests used:
[1] = molecular target: T1, Serine/threonine-protein kinase B-raf (Homo sapiens, UniProt P15056, V600E); assay: Inhibition of recombinant C-terminal his6-tagged B-Raf (437 to 765 residues) V600E mutant (unknown origin) catalytic domain expressed in baculovirus infected Sf21 insect cells using biotinylated Mek substrate preincubated for 60 mins measured after 3 hrs by amplified luminescence proximity homogeneous assay
[2] = molecular target: T1, Serine/threonine-protein kinase B-raf; assay: Inhibition of B-Raf V600E mutant in human A375 cells assessed as reduction in ERK phosphorylation; format: cell-based
MAP kinase p38 = MAP kinase p38 (Homo sapiens, UniProt O15264+Q15759+Q16539+P53778); assay: Inhibition of P38 (unknown origin); format: protein assay
Homo sapiens [3] = species on record: Homo sapiens; assay: Selectivity ratio of IC50 for P38 (unknown origin) to IC50 for recombinant C-terminal his6-tagged B-Raf (437 to 765 residues) V600E mutant (unknown origin) expressed in baculovirus infected Sf21 insect cells
A-375 = assay: Antiproliferative activity against human A375 cells; format: functional, cell-based
[4] = Solubility of the compound in PBS at pH 7; format: physicochemical
Homo sapiens [5] = species on record: Homo sapiens; assay: Selectivity ratio of IC50 for VEGFR2 (unknown origin) to IC50 for recombinant C-terminal his6-tagged B-Raf (437 to 765 residues) V600E mutant (unknown origin) expressed in baculovirus infected Sf21 insect cells
[6] = molecular target: Vascular endothelial growth factor receptor 2 (Homo sapiens, UniProt P35968); assay: Inhibition of VEGFR2 (unknown origin)
[7] = molecular target: Platelet-derived growth factor receptor alpha (Homo sapiens, UniProt P16234); assay: Inhibition of PDGFRalpha (unknown origin)
[8] = molecular target: Tyrosine-protein kinase Lyn (Homo sapiens, UniProt P07948); assay: Inhibition of Lyn (unknown origin)
[9] = molecular target: Mast/stem cell growth factor receptor Kit (Homo sapiens, UniProt P10721); assay: Inhibition of Kit (unknown origin)
[10] = Half life in mouse at 20 mg/kg, po administered as single dose; format: ADME, organism-based; conditions: in vivo
[11] = Clearance in mouse at 20 mg/kg, po administered as single dose; format: ADME, organism-based; conditions: in vivo
Mus musculus = assay: Volume of distribution in mouse at 20 mg/kg, po administered as single dose; format: ADME, organism-based; conditions: in vivo
Ephrin type-B receptor 4 = molecular target: T2, Ephrin type-B receptor 4 (Homo sapiens, UniProt P54760); assay: Inhibition of EphB4 (unknown origin)
T2 sequence (P54760 whole entry): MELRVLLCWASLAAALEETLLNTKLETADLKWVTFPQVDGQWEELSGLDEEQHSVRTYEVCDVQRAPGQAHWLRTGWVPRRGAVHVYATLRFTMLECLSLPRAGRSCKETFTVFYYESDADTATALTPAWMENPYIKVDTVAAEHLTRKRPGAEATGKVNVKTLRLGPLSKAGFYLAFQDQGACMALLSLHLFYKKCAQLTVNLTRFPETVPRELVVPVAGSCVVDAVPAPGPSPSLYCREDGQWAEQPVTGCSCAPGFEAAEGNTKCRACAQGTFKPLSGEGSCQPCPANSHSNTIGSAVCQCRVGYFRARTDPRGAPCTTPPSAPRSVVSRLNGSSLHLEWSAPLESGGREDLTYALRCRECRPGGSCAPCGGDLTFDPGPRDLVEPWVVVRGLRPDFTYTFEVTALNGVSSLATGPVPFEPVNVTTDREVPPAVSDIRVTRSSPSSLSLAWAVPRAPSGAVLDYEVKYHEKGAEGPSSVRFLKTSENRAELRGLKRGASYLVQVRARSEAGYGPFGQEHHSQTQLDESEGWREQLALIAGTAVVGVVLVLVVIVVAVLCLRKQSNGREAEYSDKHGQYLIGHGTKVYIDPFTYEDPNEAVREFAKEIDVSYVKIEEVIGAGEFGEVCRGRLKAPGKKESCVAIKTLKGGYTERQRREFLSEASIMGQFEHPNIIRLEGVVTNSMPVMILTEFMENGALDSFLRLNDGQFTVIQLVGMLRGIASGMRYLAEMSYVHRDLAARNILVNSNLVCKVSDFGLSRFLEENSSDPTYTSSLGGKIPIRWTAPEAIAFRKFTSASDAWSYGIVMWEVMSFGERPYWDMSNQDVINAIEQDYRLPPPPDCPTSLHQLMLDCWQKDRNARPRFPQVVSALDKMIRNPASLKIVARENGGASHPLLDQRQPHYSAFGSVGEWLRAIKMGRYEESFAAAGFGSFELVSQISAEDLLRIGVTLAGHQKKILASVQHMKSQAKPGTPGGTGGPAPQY

Ephrin type-A receptor 4 = Ephrin type-A receptor 4 (Homo sapiens, UniProt P54764); assay: Inhibition of EphA4 (unknown origin)
[12] = Oral bioavailability in mouse at 20 mg/kg administered as single dose; format: ADME, organism-based; conditions: in vivo

T1 sequence (P15056 2-766 V600E limits assumed): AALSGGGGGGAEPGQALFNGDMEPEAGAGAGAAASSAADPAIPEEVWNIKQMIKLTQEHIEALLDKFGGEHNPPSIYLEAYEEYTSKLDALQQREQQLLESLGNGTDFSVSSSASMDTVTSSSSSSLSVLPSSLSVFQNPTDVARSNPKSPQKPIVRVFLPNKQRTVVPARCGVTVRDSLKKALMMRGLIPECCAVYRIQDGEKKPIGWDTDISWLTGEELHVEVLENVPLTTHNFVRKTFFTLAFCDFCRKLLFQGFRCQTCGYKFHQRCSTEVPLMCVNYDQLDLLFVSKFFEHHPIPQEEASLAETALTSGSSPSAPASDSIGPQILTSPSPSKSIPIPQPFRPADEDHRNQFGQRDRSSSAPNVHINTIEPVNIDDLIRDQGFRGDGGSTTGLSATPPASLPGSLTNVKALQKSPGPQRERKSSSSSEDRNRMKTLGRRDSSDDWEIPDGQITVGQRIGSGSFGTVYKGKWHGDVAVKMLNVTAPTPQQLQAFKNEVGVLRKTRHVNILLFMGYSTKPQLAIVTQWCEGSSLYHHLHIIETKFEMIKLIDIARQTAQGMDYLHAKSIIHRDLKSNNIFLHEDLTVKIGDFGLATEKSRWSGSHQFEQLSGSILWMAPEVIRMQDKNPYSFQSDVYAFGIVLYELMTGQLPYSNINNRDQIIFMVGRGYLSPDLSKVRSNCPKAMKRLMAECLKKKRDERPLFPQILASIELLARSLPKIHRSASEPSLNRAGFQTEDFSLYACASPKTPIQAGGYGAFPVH
Sequence of Vascular endothelial growth factor receptor 2 (P35968 whole entry): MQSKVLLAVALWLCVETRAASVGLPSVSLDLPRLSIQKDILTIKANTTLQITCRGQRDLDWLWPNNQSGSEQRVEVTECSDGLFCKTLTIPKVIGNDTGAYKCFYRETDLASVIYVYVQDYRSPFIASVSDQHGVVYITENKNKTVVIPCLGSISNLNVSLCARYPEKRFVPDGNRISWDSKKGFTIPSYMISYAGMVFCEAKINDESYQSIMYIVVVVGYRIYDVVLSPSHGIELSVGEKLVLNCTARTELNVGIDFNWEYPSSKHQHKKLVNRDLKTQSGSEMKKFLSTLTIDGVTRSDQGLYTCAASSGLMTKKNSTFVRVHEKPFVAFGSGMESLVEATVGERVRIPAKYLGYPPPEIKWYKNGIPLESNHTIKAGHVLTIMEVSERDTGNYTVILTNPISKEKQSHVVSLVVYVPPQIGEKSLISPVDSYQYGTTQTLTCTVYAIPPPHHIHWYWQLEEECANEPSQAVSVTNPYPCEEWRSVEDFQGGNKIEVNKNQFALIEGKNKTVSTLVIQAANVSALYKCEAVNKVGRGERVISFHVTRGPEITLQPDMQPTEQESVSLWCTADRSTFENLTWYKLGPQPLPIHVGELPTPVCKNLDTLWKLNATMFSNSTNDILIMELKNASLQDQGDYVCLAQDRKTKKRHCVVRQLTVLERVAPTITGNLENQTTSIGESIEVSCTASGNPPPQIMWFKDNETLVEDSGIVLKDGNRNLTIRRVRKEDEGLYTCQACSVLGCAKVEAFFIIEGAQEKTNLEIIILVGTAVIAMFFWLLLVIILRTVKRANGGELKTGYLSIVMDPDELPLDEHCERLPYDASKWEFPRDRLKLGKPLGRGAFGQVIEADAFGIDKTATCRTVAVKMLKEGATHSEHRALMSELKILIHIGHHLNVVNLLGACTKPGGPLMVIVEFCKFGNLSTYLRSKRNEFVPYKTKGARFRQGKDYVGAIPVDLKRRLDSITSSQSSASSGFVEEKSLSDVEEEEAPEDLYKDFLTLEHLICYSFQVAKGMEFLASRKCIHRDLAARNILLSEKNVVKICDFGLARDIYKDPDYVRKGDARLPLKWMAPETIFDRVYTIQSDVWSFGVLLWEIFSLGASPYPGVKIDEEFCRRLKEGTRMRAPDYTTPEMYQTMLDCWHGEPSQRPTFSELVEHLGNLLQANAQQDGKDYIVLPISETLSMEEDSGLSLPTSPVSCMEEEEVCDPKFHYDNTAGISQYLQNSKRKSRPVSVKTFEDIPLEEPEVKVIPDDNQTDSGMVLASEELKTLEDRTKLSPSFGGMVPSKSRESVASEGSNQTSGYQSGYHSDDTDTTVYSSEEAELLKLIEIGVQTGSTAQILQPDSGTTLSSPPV
Sequence of Mast/stem cell growth factor receptor Kit (P10721 whole entry): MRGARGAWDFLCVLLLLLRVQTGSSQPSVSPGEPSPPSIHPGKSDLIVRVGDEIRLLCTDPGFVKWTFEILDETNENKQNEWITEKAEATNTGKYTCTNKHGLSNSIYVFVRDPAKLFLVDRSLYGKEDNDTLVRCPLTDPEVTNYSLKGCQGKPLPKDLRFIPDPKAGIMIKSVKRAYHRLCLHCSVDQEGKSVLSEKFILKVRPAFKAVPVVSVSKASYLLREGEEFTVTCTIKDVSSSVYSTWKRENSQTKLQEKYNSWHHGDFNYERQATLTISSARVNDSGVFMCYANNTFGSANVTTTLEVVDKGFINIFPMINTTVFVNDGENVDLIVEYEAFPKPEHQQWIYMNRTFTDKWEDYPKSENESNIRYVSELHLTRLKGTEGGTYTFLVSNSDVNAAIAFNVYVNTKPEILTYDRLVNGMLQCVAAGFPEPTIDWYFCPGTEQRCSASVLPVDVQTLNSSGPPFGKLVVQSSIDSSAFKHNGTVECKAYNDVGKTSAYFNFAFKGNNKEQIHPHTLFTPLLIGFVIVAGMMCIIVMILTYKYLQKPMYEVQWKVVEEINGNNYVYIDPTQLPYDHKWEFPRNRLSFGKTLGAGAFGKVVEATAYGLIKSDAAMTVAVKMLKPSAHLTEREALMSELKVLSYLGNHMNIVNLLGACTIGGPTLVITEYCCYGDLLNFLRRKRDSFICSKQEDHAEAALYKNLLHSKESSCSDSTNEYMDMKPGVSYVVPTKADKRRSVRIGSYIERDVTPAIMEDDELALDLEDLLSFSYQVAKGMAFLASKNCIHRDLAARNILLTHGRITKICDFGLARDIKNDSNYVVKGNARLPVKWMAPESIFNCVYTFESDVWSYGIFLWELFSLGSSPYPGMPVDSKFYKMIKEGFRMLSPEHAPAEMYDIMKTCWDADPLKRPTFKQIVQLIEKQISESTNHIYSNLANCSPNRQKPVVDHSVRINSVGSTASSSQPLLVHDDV
Sequence of Platelet-derived growth factor receptor alpha (P16234 whole entry): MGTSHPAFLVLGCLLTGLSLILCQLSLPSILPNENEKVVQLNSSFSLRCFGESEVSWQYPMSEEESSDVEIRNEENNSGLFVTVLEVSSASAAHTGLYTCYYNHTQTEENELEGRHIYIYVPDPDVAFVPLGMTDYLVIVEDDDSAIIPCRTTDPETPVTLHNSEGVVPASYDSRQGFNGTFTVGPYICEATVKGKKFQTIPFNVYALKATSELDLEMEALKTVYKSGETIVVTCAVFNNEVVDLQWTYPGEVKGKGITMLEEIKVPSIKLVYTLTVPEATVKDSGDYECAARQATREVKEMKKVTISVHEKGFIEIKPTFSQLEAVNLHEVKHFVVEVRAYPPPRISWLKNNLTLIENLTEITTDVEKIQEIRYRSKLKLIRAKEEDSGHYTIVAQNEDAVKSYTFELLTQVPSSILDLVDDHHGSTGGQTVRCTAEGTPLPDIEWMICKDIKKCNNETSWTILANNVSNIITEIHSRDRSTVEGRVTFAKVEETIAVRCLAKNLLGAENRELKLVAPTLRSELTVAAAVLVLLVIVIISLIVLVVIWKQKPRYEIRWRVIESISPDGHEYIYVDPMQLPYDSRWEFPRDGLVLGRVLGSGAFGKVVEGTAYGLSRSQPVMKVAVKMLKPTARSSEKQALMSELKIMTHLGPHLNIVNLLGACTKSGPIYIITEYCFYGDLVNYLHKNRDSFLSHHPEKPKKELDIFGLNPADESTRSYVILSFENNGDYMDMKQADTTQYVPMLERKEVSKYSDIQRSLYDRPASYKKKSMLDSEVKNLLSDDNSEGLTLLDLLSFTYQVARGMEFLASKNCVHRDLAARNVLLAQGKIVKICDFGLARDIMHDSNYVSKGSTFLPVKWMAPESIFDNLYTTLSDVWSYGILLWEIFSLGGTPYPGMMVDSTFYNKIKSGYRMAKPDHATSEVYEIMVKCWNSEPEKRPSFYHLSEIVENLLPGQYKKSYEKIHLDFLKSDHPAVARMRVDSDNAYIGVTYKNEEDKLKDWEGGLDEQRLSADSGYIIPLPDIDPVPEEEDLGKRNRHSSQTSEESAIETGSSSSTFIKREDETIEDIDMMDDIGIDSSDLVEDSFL
Sequence of Tyrosine-protein kinase Lyn (P07948 whole entry): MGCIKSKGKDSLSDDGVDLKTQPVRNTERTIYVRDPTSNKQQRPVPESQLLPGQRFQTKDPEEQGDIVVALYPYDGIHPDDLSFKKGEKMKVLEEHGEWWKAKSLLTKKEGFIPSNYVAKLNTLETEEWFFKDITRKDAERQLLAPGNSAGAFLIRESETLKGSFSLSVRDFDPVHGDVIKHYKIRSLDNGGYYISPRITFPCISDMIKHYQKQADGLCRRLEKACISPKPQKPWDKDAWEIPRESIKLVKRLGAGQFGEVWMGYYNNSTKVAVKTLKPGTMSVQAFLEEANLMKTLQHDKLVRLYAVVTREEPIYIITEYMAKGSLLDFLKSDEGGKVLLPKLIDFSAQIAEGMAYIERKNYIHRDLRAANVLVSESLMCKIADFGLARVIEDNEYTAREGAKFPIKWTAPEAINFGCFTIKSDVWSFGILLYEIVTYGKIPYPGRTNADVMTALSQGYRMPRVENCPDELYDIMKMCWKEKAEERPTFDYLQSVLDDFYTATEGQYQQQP

Row | Structure (SMILES) | IC50 [1] [nM] | EC50 [2] [nM] | IC50 (MAP kinase p38) [nM] | Ratio IC50 (Homo sapiens [3]) | EC50 (A-375) [nM] | solubility [4] [µM] | Ratio IC50 (Homo sapiens [5]) | IC50 [6] [nM] | IC50 [7] [nM] | IC50 [8] [nM] | IC50 [9] [nM] | half-life [10] [h] | CL/F [11] [mL/min/kg] | Vd (Mus musculus) [L/kg] | IC50 (Ephrin type-B receptor 4) [nM] | IC50 (Ephrin type-A receptor 4) [nM] | bioavailability [12] [%]
1 | CC(=O)Nc1cn2cc(-c3cc(NC(=O)c4cccc(C(F)(F)F)n4)ccc3C)ccc2n1 | 6 | > 10000 | > 25000 | > 4000 | 130 |  |  |  |  |  |  |  |  |  |  |  | 
2 | CC(=O)Nc1cn2cc(-c3cc(NC(=O)c4cc(N5CCN(C)C[C@@H]5C)cc(C(F)(F)F)c4)ccc3C)ccc2n1 | 3 | 240 | 2 | 0.7 | 340 | 122 (≈ 68.9 µg/mL) |  |  |  |  |  |  |  |  |  |  | 
3 | CC(=O)Nc1cn2cc(-c3cc(NC(=O)c4ccc(CN5CCN(C)CC5)c(C(F)(F)F)c4)ccc3C)ccc2n1 | 5 | 130 | < 11 | < 2 | 430 | 4.6 (≈ 2.6 µg/mL) | 20 | 110 |  |  |  |  |  |  |  |  | 
4 | CC(=O)Nc1cn2cc(-c3cc(NC(=O)c4cc(C(F)(F)F)ccn4)ccc3C)ccc2n1 | 0.9 | 770 | 660 | 700 | 280 |  | 2000 | 2000 |  |  |  |  |  |  |  |  | 
5 | CC(=O)Nc1cn2cc(-c3cc(NC(=O)c4ccccc4)ccc3C)ccc2n1 | 61 | 540 | 1600 | 3 to 20 | 100 |  | 18 | 11000 |  |  |  |  |  |  |  |  | 
6 | CC(=O)Nc1cn2cc(-c3cc(NC(=O)c4cccc(C(C)(C)C)c4)ccc3C)ccc2n1 | 0.3 | 25 | 2 | 7 | 57 |  | 146 | 44 |  |  |  |  |  |  |  |  | 
7 | CC(=O)Nc1cn2cc(-c3cc(NC(=O)c4cccc(Cl)c4)ccc3C)ccc2n1 | 0.3 | 480 | 3100 | 10000 | 70 |  | 9000 | 2700 |  |  |  |  |  |  |  |  | 
8 | CC(=O)Nc1cn2cc(-c3cc(NC(=O)c4cccc(C(F)(F)F)c4)ccc3C)ccc2n1 | 0.2 | 230 | 220 | 1100 | 86 | < 0.4 | 1600 | 320 to 670 | 8 | 170 | 52 | 2.45 | 18 | 2.15 | 150 | 74 | 73
